Laboratory results taken from ChEMBL document CHEMBL1150305, “Synthesis and in vitro PDT activity of miscellaneous porphyrins with amino acid and uracil” (2008).

Test: Photocytotoxicity against human Ec9706 cells after 2.5 hrs irradiation measured after 24 hrs incubation in dark by MTT assay
Format: functional
With `Nc1ccc(-c2c3nc(c(-c4ccc(N)cc4)c4ccc([nH]4)c(-c4ccccc4)c4nc(c(-c5ccccc5)c5ccc2[nH]5)C=C4)C=C3)cc1` the “inhibition (INH)” value was 66.6%.
For `CC(C)(C)OC(=O)N[C@@H](Cc1ccccc1)C(=O)Nc1ccc(-c2c3nc(c(-c4ccc(NC(=O)Cn5cc(F)c(=O)[nH]c5=O)cc4)c4ccc([nH]4)c(-c4ccccc4)c4nc(c(-c5ccccc5)c5ccc2[nH]5)C=C4)C=C3)cc1`, the “inhibition (INH)” value was 88.65%.
For `N[C@@H](Cc1ccccc1)C(=O)Nc1ccc(-c2c3nc(c(-c4ccc(NC(=O)[C@@H](N)Cc5ccccc5)cc4)c4ccc([nH]4)c(-c4ccccc4)c4nc(c(-c5ccccc5)c5ccc2[nH]5)C=C4)C=C3)cc1`, the “inhibition (INH)” value was 96.13%.
In the case of `O=C(Cn1cc(F)c(=O)[nH]c1=O)Nc1ccc(-c2c3nc(c(-c4ccc(NC(=O)Cn5cc(F)c(=O)[nH]c5=O)cc4)c4ccc([nH]4)c(-c4ccccc4)c4nc(c(-c5ccccc5)c5ccc2[nH]5)C=C4)C=C3)cc1`, the “inhibition (INH)” value is reported as 100%.
In the case of `CC(C)(C)OC(=O)N[C@@H](Cc1ccccc1)C(=O)Nc1ccc(-c2c3nc(c(-c4ccc(NC(=O)[C@H](Cc5ccccc5)NC(=O)OC(C)(C)C)cc4)c4ccc([nH]4)c(-c4ccccc4)c4nc(c(-c5ccccc5)c5ccc2[nH]5)C=C4)C=C3)cc1`, the “inhibition (INH)” value is reported as 100%.
For `Nc1ccc(-c2c3nc(c(-c4ccc(NC(=O)[C@@H](N)Cc5ccccc5)cc4)c4ccc([nH]4)c(-c4ccccc4)c4nc(c(-c5ccccc5)c5ccc2[nH]5)C=C4)C=C3)cc1`, the “inhibition (INH)” value was 37.94%.
In the case of `Nc1ccc(-c2c3nc(c(-c4ccc(NC(=O)Cn5cc(F)c(=O)[nH]c5=O)cc4)c4ccc([nH]4)c(-c4ccccc4)c4nc(c(-c5ccccc5)c5ccc2[nH]5)C=C4)C=C3)cc1`, the “inhibition (INH)” value is reported as 97.09%.
With `CC(C)(C)OC(=O)N[C@@H](Cc1ccccc1)C(=O)Nc1ccc(-c2c3nc(c(-c4ccc(N)cc4)c4ccc([nH]4)c(-c4ccccc4)c4nc(c(-c5ccccc5)c5ccc2[nH]5)C=C4)C=C3)cc1` the “inhibition (INH)” value was 47.21%.
In the case of `N[C@@H](Cc1ccccc1)C(=O)Nc1ccc(-c2c3nc(c(-c4ccc(NC(=O)Cn5cc(F)c(=O)[nH]c5=O)cc4)c4ccc([nH]4)c(-c4ccccc4)c4nc(c(-c5ccccc5)c5ccc2[nH]5)C=C4)C=C3)cc1`, the “inhibition (INH)” value is reported as 69.45%.
